Reference: paper PMC6962373, “Combinatorial allosteric modulation of agonist response in a self-interacting G-protein coupled receptor” (Communications Biology, 2020)
Read-outs that look alike come from different tables or passages of the source.

Assays:
Format in all cases: cell-based, human
[1] = tested on: HEK293 cells expressing S1PR1; test: ERK1/2 phosphorylation ELISA/immunoblot in HEK293 cells expressing S1PR1
Procedure: (§1) Human embryonic kidney-293 (HEK293, ATCC CRL-1573) cells were routinely maintained in complete DMEM/F12 1:1 mixture (Sigma Aldrich) containing 10% FBS and 0.5 mM N-acetyl cysteine. Mycoplasma detection was performed routinely by checking for cytoplasmic DNA and every six months with Universal Mycoplasma Detection Kit (ATCC 30–1012 K). The stop-less coding sequences of either wild-type S1PR1 or mS1PR1 (without the additional modifications present in the constructs for the protein production) were obtained from GeneArt (Thermo Fisher Scientific) and inserted into the HindIII/BamHI-digested pEGFP-N1 vector (Takara) to express S1PR1- and mS1PR1-eGFP. The pEFGP-N1-S1PR1 or pEFGP-N1-mS1PR1 plasmids were further modified by re-introducing the TAG stop codon at the 3′ end of the S1PR1 open reading frame to express untagged S1PR1 or mS1PR1, respectively, using the primer pair 5’-[…]-3’ and 5′-[…]-3′. Cell monolayers were transfected with JetPEI™ (Polyplus) and the appropriate plasmid vectors. Transfected cell cultures were passed once a week for three times and then the GFP^+ cells were sorted in a MoFlo XDP (Beckman Coulter). Sorted cell cultures were expanded and sorted again and the expression of the desired chimeric protein verified by immunoblot. Sorting was performed at the Flow Cytometry Resourc, Advanced Cytometry Technical Applications Laboratory of IRCCS San Raffaele Scientific Institute.
(§2) Two hundred nanomole of S1PR1/L of culture medium were used at […] receptor concentration. Under sterile conditions, purified receptor was first dialysed three times against the serum-free medium. Medium-equilibrated S1PR1 was then incubated 24 h at +4 °C in complete culture medium. The depletion procedure was performed twice for each lot of culture medium. […] The depleted medium was also used to prepare 1000× stock solutions of each of the two S1PR1 agonists or the GRK inhibitor CCG215022, and the 10× ML056 stock solution used in the cell-based experiments.
(§3) HEK293 cells were plated in 96 multi-well plates and grown until 90% confluent. […] To quantify pERK1/2 and total ERK, 40 µg and 5 µg of total protein extract were used from each well, respectively. The chromogenic signals were read at the Sunrise Tecan multi-plate reader and expressed as pERK/ERKTotal signal ratio. […] AKT phosphorylation was quantified by ELISA as above in cell lysates after 5 min stimulation, with the AKT (pS473 + Total) ELISA Kit from Abcam (cat. n. ab176657).

[2] = tested on: HEK293 cells expressing mS1PR1; test: ERK1/2 phosphorylation ELISA/immunoblot in HEK293 cells expressing mS1PR1; settings: for change of potency in stimulating ERK phosphorylation, mS1PR1 vs S1PR1 clones / maximal pERK response in mS1PR1 vs S1PR1 clones: 5 min stimulation, 1 pM–1 mM ligand
Procedure: 95% CI are reported in Supplementary Fig. 4.
as §1, §2, §3

[3] = tested on: HEK293 cells expressing S1PR1-eGFP; test: Confocal microscopy count of cytosolic eGFP+ clusters (receptor internalisation), S1PR1-eGFP; settings: 0.1 µM, 20 min
Procedure: (§4) Cells expressing S1PR1-eGFP or mS1PR1-eGFP were plated onto poly-L-lysine-coated 8 well µ-slides (Ibidi) at 3 × 10^4 cell/well. […] Images were deconvoluted using Huygens Professional Software (Scientific Volume Imaging). Mid-plane z-sections were used for counting cytosolic GFP^+ vesicles in cells stimulated for 20 min. Confocal imaging was performed at the Advanced Light and Electron Microscopy Bioimaging Centre of IRCCS San Raffaele Scientific Institute. We used a custom Matlab script (Supplementary Data 1) performing the following image analysis: (i) the membranes were segmented from the image, identifying regions of both absolute and local high intensity (Supplementary Fig. 9A–G) in order to include all the membranes independently of their intensity; (ii) morphological erosion was used to clear small objects and to smooth the edges of the identified membranes (Supplementary Fig. 9H, I); (iii) the region of interest was defined as the region completely enclosed by a membrane (Supplementary Fig. 9J, K); (iv) GFP^+ cytosolic vesicles were identified as local intensity maxima (Supplementary Fig. 9L–O) within the region of interest and counted. Experiments were replicated independently three times. The number of vesicles from 40 to 150 cells were counted as detailed in Fig. 4 legend and the statistical analysis performed with the GraphPad Prism software.

[4] = tested on: HEK293 cells expressing mS1PR1-eGFP; test: Confocal microscopy count of cytosolic eGFP+ clusters (receptor internalisation), mS1PR1-eGFP; settings: 0.1 µM, 20 min
Procedure: as §4

[5] = tested on: HEK293 cells expressing S1PR1-eGFP; test: Fluorescence-based analysis of S1PR1 down-modulation, S1PR1-eGFP; settings: 4 h-long treatment
Procedure: (§7) Cells were washed twice in ice-cold phosphate-buffered saline and lysed in 20 mM HEPES, 150 mM NaCl, 1% Triton X-100, 0.15% Nonidet P-40, 1× HALT™ Proteases & Phosphatases inhibitor cocktail, 1.25 U/mL Benzonase. Lysates were clarified were used and 50 µg of total protein from each sample were read in the Cary Eclipse Varian spectrofluorometer with 488 nm λEx and 509 nm λEm to measure the eGFP amount.

[6] = tested on: HEK293 cells expressing mS1PR1-eGFP; test: Fluorescence-based analysis of S1PR1 down-modulation, mS1PR1-eGFP; settings: 4 h-long treatment
Procedure: as §7

[7] = tested on: HEK293 cells expressing S1PR1-eGFP; test: Anti-GFP immunoprecipitation of S1PR1-eGFP, immunoblot for β-arrestin 1/2 and ERK1/2; settings: 0.1 µM, co-immunoprecipitation; for S1PR1 binding to β-arrestins in the late signalling phase: 30 min
Procedure: (§5) Cells were washed twice in ice-cold phosphate-buffered saline and lysed in 20 mM HEPES, 150 mM NaCl, 1% Triton X-100, 0.15% Nonidet P-40, 1× HALT™ Proteases and Phosphatases inhibitor cocktail, 1.25 U/mL Benzonase. Clarified lysates were incubated for 1 h at +4 °C with GFP-Trap® resin (Chromotek) and extensively washed with lysis buffer. Finally, the immunopurified material was eluted in 4% SDS and analysed by immunoblot. The equal loading was based on the GFP amount reading the samples in the Cary Eclipse Varian spectrofluorometer with 488 nm λEx and 509 nm λEm. In some experiments, cells expressing S1PR1 without the GFP tag were used as control and the equal loading was based on total protein concentration measured with the BCA method (G Biosciences).

[8] = tested on: HEK293 cells expressing mS1PR1-eGFP; test: Anti-GFP immunoprecipitation of mS1PR1-eGFP, immunoblot for β-arrestin 1/2 and ERK1/2; settings: 0.1 µM, co-immunoprecipitation
Procedure: as §5

[9] = tested on: HEK293 S1PR1 expressing cells; test: AKT phosphorylation ELISA in HEK293 S1PR1 expressing cells; settings: 0.1 µM S1P or FTY720-P for 5 min, PTX 300 ng/mL, CCG215022 50 µM
Procedure: as §3, with “ab176657). […]” for “ab176657).”
pertussis toxin (PTX) for 18 hours and with 0.1% DMSO alone or with 50 µM CCG215022 […]
20 nM EGF for 5 min. pERK1/2 or pAKT were measured in the cell extracts by ELISA and expressed as relative units; n=12 independent experiments. (b) HEK293 cells expressing […]
(§6) ELISA and expressed as relative units; n=3 independent experiments. […]

[10] = tested on: HEK293 S1PR1 expressing cells; test: EGF-mediated ERK1/2 phosphorylation in HEK293 S1PR1 expressing cells (inhibitor specificity control); settings: CCG215022 50 µM, 20 nM EGF for 5 min
Procedure: HEK293 cells were plated in 96 multi-well plates and grown until 90% confluent. After the S1P-starvation, the cell monolayers were treated as described in the text and then processed using the ERK1/2 (pT202/Y204 + Total) ELISA Kit from Abcam (cat n. ab176660), following the manufacturer guidelines and adding the HALT™ Proteases & Phosphatases inhibitor cocktail (Thermo Fisher Scientific) to the lysis buffer provided with the kit. To quantify pERK1/2 and total ERK, 40 µg and 5 µg of total protein extract were used from each well, respectively. The chromogenic signals were read at the Sunrise Tecan multi-plate reader and expressed as pERK/ERKTotal signal ratio. […] AKT phosphorylation was quantified by ELISA as above in cell lysates after 5 min stimulation, with the AKT (pS473 + Total) ELISA Kit from Abcam (cat. n. ab176657).
Supplementary Figure 2 | Effects of S1PR1 overexpression in HEK293 cells. […]
20 nM EGF for 5 min. pERK1/2 or pAKT were measured in the cell extracts by ELISA and expressed as relative units; n=12 independent experiments. […]
as §6
without 30 min pre-treatment with 100 µM ML056. Cell extracts were then analysed in immunoblotting for S1PR1, ERK1/2 and pERK1/2.

Compound	change of potency in stimulating ERK phosphorylation, mS1PR1 vs S1PR1 clones [2]	maximal pERK response in mS1PR1 vs S1PR1 clones [2]	number of clusters/cell, 95% CI [3]	number of clusters/cell, 95% CI [4]	S1PR1 binding to β-arrestins in the late signalling phase [7]	ERK1/2 recruited onto activated S1PR1 [7]	stable interaction of mS1PR1 with β-arrestin [8]	effect on AKT phosphorylation [9]	further results
CCCCCCCCc1ccc(CC[C@](N)(CO)COP(=O)(O)O)cc1 [FTY720-P, FTY720 (S)-phosphate]	ten-fold decrease of their potency	not affected	9.9–14.1 clusters/cell	8.7–11 clusters/cell	stable binding to β-arrestins	did not show an increase of the interaction with ERK1/2 above baseline levels	neither S1P nor FTY720-P were capable to induce a stable interaction	induced	time at which pERK1/2 response decreased to the baseline level ([1]; 0.1 µM agonist): 20 min; time of early pERK1/2 peak ([1]; 0.1 µM agonist, S1P-starved cells): 5 min; pERK1/2 kinetics in mS1PR1 cells ([2]; 0.1 µM agonist): stable level of ERK1/2 phosphorylation; S1PR1 level in cell lysates (receptor degradation) [5]: barely detectable; mS1PR1 level in cell lysates (receptor degradation) [6]: remained stable
CCCCCCc1cccc(NC(=O)[C@H](N)CCP(=O)(O)O)c1 [ML056]	–	–	–	–	–	–	–	–	effect on agonist-induced signalling response (pERK1/2) ([1]; 30 min pre-treatment with 100 µM ML056, then 0.1 µM S1P, immunoblot): abrogated
CC1=C(C(=O)Nc2ccc3[nH]ncc3c2)C(c2ccc(F)c(C(=O)NCc3ccccn3)c2)NC(=O)N1 (centres unmarked) [CCG215022]	–	–	–	–	–	–	–	not modified	effect on EGF-mediated ERK1/2 phosphorylation [10]: does not inhibit
pertussis toxin	–	–	–	–	–	–	–	abolishes	effect on S1P- and FTY720-P-induced ERK1/2 phosphorylation ([1]; 300 ng/mL pertussis toxin for 18 h, then 0.1 µM agonist): undetectable; effect on agonist-induced ERK phosphorylation in mS1PR1-expressing clones ([2]; 300 ng/mL PTX, stimulation with either agonist): reduced the ERK phosphorylation to basal
CCCCCCCCCCCCC/C=C/[C@@H](O)[C@@H](N)COP(=O)(O)O [S1P, Sphingosine 1-phosphate]	ten-fold decrease of their potency	not affected	6.7–10.2 clusters/cell	5.7–7.7 clusters/cell	only a limited interaction	recruited more ERK1/2	neither S1P nor FTY720-P were capable to induce a stable interaction	induced	pERK1/2 still detectable after 60 min, % of its maximal value [1]: 50%; time of early pERK1/2 peak [1]: 5 min
